Source: patent US8153692B2, “Oral preparation for preventing or improving skin dryness” (Kyowa Hakko Bio Co., Ltd., priority 2005, dated 2012)

Tested on: HOS:HR-1 mice
Experiment: Skin water content after oral ingestion of citrulline in feed (SKICON-200)
Format: in vivo
Conditions: CE-2 feed containing 1.0% by weight of L-citrulline, measured weekly from 1 to 5 weeks, relative to CE-2 feed group
Description: HOS:HR-1 mice (male, 5 weeks old, purchased from Charles River Co., Ltd.) were used in the test. The breeding conditions were that the room temperature was 22±2° C., the humidity was 35±15% and a feed and water were freely ingested.
Each test group consisted of 10 mice. A commercially available powder feed CE-2 (manufactured by Clea Japan) was fed to mice of the first group, CE-2 containing 1.0% by weight of L-citrulline (manufactured by Kyowa Hakko Kogyo Co., Ltd.) was fed to mice of the second group.
The water content of the skin surface on the back thigh upper portion of each mouse was measured with SKICON-200 (manufactured by IBS) every one week, from a week to five weeks after the start-up of the feeding of each feed. The measurement was conducted ten times for each mouse, and an average value of each mouse was obtained. Further, an average value of each test group was calculated.
The relative epidermal water content was calculated according to the following formula using the average value. Relative epidermal water content (%)=(A2/A1)×100 • A1: Epidermal water content of the first group • A2: Epidermal water content of the second group

NC(=O)NCCC[C@H](N)C(=O)O [citrulline, L-citrulline]
water content of the skin (relative epidermal water content): markedly improved
